In patent US20160320384A1, “METHODS FOR ASSAYING IMMUNOLOGICAL COMPETENCE” (YEDA RESEARCH AND DEVELOPMENT CO. LTD., priority 2013, published 2016):

Assays:
serum IgG antibodies = test: Serum IgG antibody binding to oligonucleotides on antigen microarray; parameters: species or system human; details: for IgG reactivities compared to T17: individual subjects (FIGS. 5A-B); for IgG binding compared to G17: individual subjects (FIG. 4)
Experimental: (§1) In a follow-up study, sera samples obtained from 23 healthy subjects, 24 SSc patients, and 49 SLE patients were tested using an antigen microarray that included 58 single-stranded oligonucleotides. Overall, 60 SLE patients, 26 SSc patients, 18 PV patients, and 31 healthy subjects were tested.
(§2) In a follow-up study, 58 different oligonucleotides, as well as double and single stranded DNA, in various lengths (104 different preparations overall), were spotted on epoxy-activated glass substrates (ArrayIt SuperEpoxi microarray substrate slides, Sunnyvale, Calif.). […] The microarrays were then blocked for 1 hour at 37° with 1% bovine serum albumin. Test serum samples in 1% Bovine Serum Albumin (BSA) blocking buffer (1:10 dilution) were incubated under a coverslip for 1 hour at 37°. The arrays were then washed and incubated for 1 hour at 37° with a 1:500 dilution of two detection antibodies, mixed together: a goat anti-human IgG Cy3-conjugated antibody, and a goat anti-human IgM Cy5-conjugated antibody (both purchased from Jackson ImmunoResearch Laboratories Inc., West Grove, Pa.). Image acquisition was performed by laser (Agilent Technologies, Santa Clara, Calif.) and the results were analyzed using Quantarray software (Packard BioChip Technologies, Billerica, Mass.). The quantitative range of signal intensity of binding to each antigen spot was 0-65,000; this range of detection made it possible to obtain reliable data at a 1:10 dilution of test serum samples.
(§3) Alternatively, oligonucleotides and double and single stranded DNA in various chain lengths were spotted on epoxyhexyltriethoxysilane (EHTES) activated slides. The microarrays were then blocked for 1 hour at room temperature with 1% casein. Test serum samples in 1% casein blocking buffer (1:20 dilution) were incubated under a coverslip for 1 hour at 37°. The arrays were then washed and incubated for 1 hour at 37° with a 1:500 dilution of two detection antibodies, mixed together: a goat anti-human IgG Cy3-conjugated antibody, and a goat anti-human IgM AF647-conjugated antibody (both purchased from Jackson ImmunoResearch Laboratories Inc., West Grove, Pa.). Image acquisition was performed by laser at two wavelengths 530 nm and 630 nm (Agilent Technologies, Santa Clara, Calif.) and the results were analyzed using Genepix Pro 7.0 software with default settings. The quantitative range of signal intensity of binding to each antigen spot was 0-65,000; this range of detection made it possible to obtain reliable data at a 1:20 dilution of test samples.
(§4) Each spot's intensity is represented by its pixels' mean after subtraction of its local background median, followed by Log 2 transform. Negative spots (following background subtraction) are imputed with background-like intensity. The foreground and background intensities of multiple spots of each antigen were averaged, and the difference between the foreground and the background was calculated.

serum IgM antibodies = test: Serum IgM antibody binding to oligonucleotides on antigen microarray; parameters: species or system human; details: for IgM reactivities compared to T17: individual subjects (FIGS. 5A-B); for IgM binding compared to G17: individual subjects (FIG. 4)
Experimental: as §1, §2, §3, §4

poly-G autoantibody = test: Poly-G autoantibody levels in kidney transplanted patients at baseline and 24 weeks after transplantation and immunosuppression (antigen microarray); format: in vivo, human; parameters: reduction in G14 IgM autoantibody intensity / reduction in G14 IgG autoantibody intensity / reduction in G40 IgM autoantibody intensity: concentration or dose not given beside the values
[1] = both studies combined: 60 SLE, 26 SSc, 18 PV patients, 31 healthy subjects
[2] = healthy subjects, SSc and PV patients (FIG. 1)
[3] = median intensity, 24 weeks after Tx vs baseline

Substance: G2T16: modified T17 oligonucleotide (DNA GGTTTTTTTTTTTTTTTT; listed as DNA, chemistry not fully specified)
- IgG reactivities compared to T17 (serum IgG antibodies): also increased compared to T17
- IgM reactivities compared to T17 (serum IgM antibodies): also increased compared to T17

Substance: A20: 20-mer adenine homo-nucleotide (AAAAAAAAAAAAAAAAAAAA; listed as DNA, chemistry not fully specified)
- IgG reactivities (serum IgG antibodies; [1]): relatively low reactivities
- IgG reactivities (serum IgG antibodies; [2]): very low or no reactivities

Substance: CGCGCGCGCGCGCGCGCGCG (listed as DNA, chemistry not given here) [(CG)10]
- IgG reactivities (serum IgG antibodies; group of SLE patients, mainly positive for anti-dsDNA (FIG. 6)): high IgG reactivities
- IgM reactivities (serum IgM antibodies; healthy subjects, SSc and SLE patients (FIG. 6)): high in all but one of the healthy subjects, in all of the SSc patients and in most of the SLE patients

Substance: G16T1: G16 with a single T added at the 3′ end (GGGGGGGGGGGGGGGGT; listed as DNA, chemistry not fully specified)
- IgG binding compared to G17 (serum IgG antibodies): considerably less than the binding to G17
- IgM binding compared to G17 (serum IgM antibodies): considerably less than the binding to G17

Substance: G1T16: poly-T chain with a single G at the 5′ end (DNA GTTTTTTTTTTTTTTTT; listed as DNA, chemistry not fully specified)
- IgG reactivities compared to T17 (serum IgG antibodies): increased in almost all the subjects
- IgM reactivities compared to T17 (serum IgM antibodies): increased in almost all the subjects

Substance: T20: 20-mer thymine homo-nucleotide (DNA TTTTTTTTTTTTTTTTTTTT)
- IgG reactivities (serum IgG antibodies; [1]): relatively low reactivities
- IgG reactivities (serum IgG antibodies; [2]): very low or no reactivities

Substance: G17: poly-guanine oligonucleotide antigen, 17 guanines (GGGGGGGGGGGGGGGGG; listed as DNA, chemistry not fully specified)
- mean IgG reactivities as a function of chain length (serum IgG antibodies; healthy, SSc, SLE dsDNA-negative and -positive groups (FIG. 3)): fell significantly

Substance: TGGGGGGGGGGGGGGGG (listed as DNA, chemistry not given here) [T1G16]
- IgG binding compared to G17 (serum IgG antibodies): essentially equal to the binding to the G17
- IgM binding compared to G17 (serum IgM antibodies): essentially equal to the binding to the G17

Substance: T16G1: poly-T chain with a single G at the 3′ end (DNA TTTTTTTTTTTTTTTTG; listed as DNA, chemistry not fully specified)
- IgG reactivities compared to T17 (serum IgG antibodies): increased in almost all the subjects
- IgM reactivities compared to T17 (serum IgM antibodies): increased in almost all the subjects

Substance: belatacept
- patients in whom the reduction in poly-G autoantibody intensity was observed (poly-G autoantibody; 6 months post immunosuppression administration, 6 patients per group): observed in all belatacept patients
- reduction in autoantibodies median intensity, combined poly-G reactivity (poly-G autoantibody; FIGS. 12A-B, 24 weeks after Tx vs baseline, belatacept vs CsA): greater reduction
- Antibody level 24 weeks after transplantation and drug administration compared to baseline (%, median intensity): IgG levels against G14 (SEQ ID NO: 41) (poly-G autoantibody; kidney transplanted patients, serum, 24 weeks after Tx vs baseline, IgG, G14): 53%
- Antibody level 24 weeks after transplantation and drug administration compared to baseline (%, median intensity): IgG levels against G17 (SEQ ID NO: 36) (poly-G autoantibody; kidney transplanted patients, serum, 24 weeks after Tx vs baseline, IgG, G17): 70%
- Antibody level 24 weeks after transplantation and drug administration compared to baseline (%, median intensity): IgG levels against G20 (SEQ ID NO: 43) (poly-G autoantibody; kidney transplanted patients, serum, 24 weeks after Tx vs baseline, IgG, G20): 58%
- Antibody level 24 weeks after transplantation and drug administration compared to baseline (%, median intensity): IgG levels against G30 (SEQ ID NO: 65) (poly-G autoantibody; kidney transplanted patients, serum, 24 weeks after Tx vs baseline, IgG, G30): 67%
- Antibody level 24 weeks after transplantation and drug administration compared to baseline (%, median intensity): IgG levels against G40 (SEQ ID NO: 66) (poly-G autoantibody; kidney transplanted patients, serum, 24 weeks after Tx vs baseline, IgG, G40): 81%
- Antibody level 24 weeks after transplantation and drug administration compared to baseline (%, median intensity): IgM levels against G14 (SEQ ID NO: 41) (poly-G autoantibody; kidney transplanted patients, serum, 24 weeks after Tx vs baseline, IgM, G14): 45%
- Antibody level 24 weeks after transplantation and drug administration compared to baseline (%, median intensity): IgM levels against G17 (SEQ ID NO: 36) (poly-G autoantibody; kidney transplanted patients, serum, 24 weeks after Tx vs baseline, IgM, G17): 63%
- Antibody level 24 weeks after transplantation and drug administration compared to baseline (%, median intensity): IgM levels against G20 (SEQ ID NO: 43) (poly-G autoantibody; kidney transplanted patients, serum, 24 weeks after Tx vs baseline, IgM, G20): 63%
- Antibody level 24 weeks after transplantation and drug administration compared to baseline (%, median intensity): IgM levels against G30 (SEQ ID NO: 65) (poly-G autoantibody; kidney transplanted patients, serum, 24 weeks after Tx vs baseline, IgM, G30): 59%
- Antibody level 24 weeks after transplantation and drug administration compared to baseline (%, median intensity): IgM levels against G40 (SEQ ID NO: 66) (poly-G autoantibody; kidney transplanted patients, serum, 24 weeks after Tx vs baseline, IgM, G40): 72%
- reduction in G14 IgG autoantibody intensity (poly-G autoantibody; [3]): 47%
- reduction in G14 IgM autoantibody intensity (poly-G autoantibody; [3]): 55%
- reduction in G17 IgG autoantibody intensity (poly-G autoantibody; [3]): 30%
- reduction in G17 IgM autoantibody intensity (FIG. 8A) (poly-G autoantibody; [3]): 37%
- reduction in G20 IgG autoantibody intensity (poly-G autoantibody; [3]): 42%
- reduction in G20 IgM autoantibody intensity (poly-G autoantibody; [3]): 37%
- reduction in G30 IgG autoantibody intensity (poly-G autoantibody; [3]): 33%
- reduction in G30 IgM autoantibody intensity (poly-G autoantibody; [3]): 41%
- reduction in G40 IgG autoantibody intensity (poly-G autoantibody; [3]): 19%
- reduction in G40 IgM autoantibody intensity (poly-G autoantibody; [3]): 28%

Substance: T16G2: modified T17 oligonucleotide (DNA TTTTTTTTTTTTTTTTGG; listed as DNA, chemistry not fully specified)
- IgG reactivities compared to T17 (serum IgG antibodies): also increased compared to T17
- IgM reactivities compared to T17 (serum IgM antibodies): also increased compared to T17
